Earlier results on 1 molecule are cited in patent publication US10894026B2, “Pharmaceutical compositions comprising a fumaric acid ester and method for the preparation thereof” (PHARMATHEN S.A., priority 2016, dated 2021).

Structures are written as SMILES. Structures can show the parent of a compound that is named as a salt.

For `COC(=O)/C=C/C(=O)OC` [Dimethyl fumarate, (E)-2-butenedioic acid dimethyl ester], for the setting “methanol”, the solubility in methanol result is reported as “sparingly soluble”. Further, under “water”, the solubility in water result is given as “insoluble”.
